Experimental data from patent publication US20260062412A1, “NITROGEN-CONTAINING HETEROCYCLIC COMPOUND HAVING MYT1 INHIBITORY ACTIVITY” (CHUGAI SEIYAKU KABUSHIKI KAISHA, priority 2023, published 2026).

What follows are molecules tested against MYT1 protein (Homo sapiens (Human), UniProt Q99640) (assay: Test for binding to ATP binding site of MYT1 (Kinase Tracer 178 / Eu-Anti-GST antibody TR-FRET)). Conditions: ATP binding site of MYT1, 30 minutes at room temperature.
Protocol: The binding capacity of each compound to the ATP binding site of MYT1 Kinase protein was evaluated. 5× Kinase Buffer A (manufactured by Thermo Fisher Scientific Inc., PV3189) was diluted to 5 times with Milli-Q water, thereby preparing 1× Kinase Buffer. Using 1× Kinase Buffer, MYT1 protein (manufactured by Carna Biosciences, Inc.) was diluted to a concentration of 0.005 μM and Eu-Anti-GST Antibody was diluted to a concentration of 1 μM. […] To a 96 well-plate, 2.5 μL of a compound diluted with DMSO was added. […] The mixture was well mixed and then allowed to stand at room temperature for 30 minutes. Thereafter, fluorescence wavelengths of 665 nm and 615 nm generated by irradiation with excitation light of 340 nm were detected using Envision (manufactured by PerkinElmer). The proportion of Tracer bound to MYT1 protein was calculated for every condition by dividing the intensity at the fluorescence wavelength of 665 nm by the intensity at the fluorescence wavelength of 615 nm.

MYT1 protein, sequence (Q99640 whole entry): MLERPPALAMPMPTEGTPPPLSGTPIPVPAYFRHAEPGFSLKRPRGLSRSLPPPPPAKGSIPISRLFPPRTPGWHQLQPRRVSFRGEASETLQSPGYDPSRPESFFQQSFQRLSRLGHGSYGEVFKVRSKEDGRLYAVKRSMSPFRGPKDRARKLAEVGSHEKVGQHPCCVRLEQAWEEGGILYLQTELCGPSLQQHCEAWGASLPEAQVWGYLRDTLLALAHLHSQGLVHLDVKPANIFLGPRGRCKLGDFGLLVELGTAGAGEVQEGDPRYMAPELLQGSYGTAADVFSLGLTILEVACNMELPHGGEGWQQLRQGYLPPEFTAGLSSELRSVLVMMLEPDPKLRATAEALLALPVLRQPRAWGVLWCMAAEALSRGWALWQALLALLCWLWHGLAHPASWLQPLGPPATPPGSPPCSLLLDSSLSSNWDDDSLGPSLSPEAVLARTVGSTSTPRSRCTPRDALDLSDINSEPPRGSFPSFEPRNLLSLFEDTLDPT

| Structure (SMILES) | IC50 [nM] |
| --- | --- |
| Nc1c(-c2ccc(F)c3[nH]ncc23)c2cc(C3CCCC3)c3ccccc3c2[nH]c1=O [Compound B25, 3-Amino-6-cyclopentyl-4-(7-fluoro-1H-indazol-4-yl)-1H-benzo[h]quinolin-2-one] | 24 |
| CC(C)(C)c1ccc2c(ccc3c(-c4ccc(F)c5[nH]ncc45)c(N)c(=O)[nH]c32)n1 [Compound C180, 3-Amino-8-tert-butyl-4-(7-fluoro-1H-indazol-4-yl)-1H-1,7-phenanthrolin-2-one] | 41 |
| Nc1c(-c2ccc(Cl)c3[nH]ncc23)c2cc(C3CCCC3)c3ncccc3c2[nH]c1=O [Compound C151, 3-Amino-4-(7-chloro-1H-indazol-4-yl)-6-cyclopentyl-1H-1,7-phenanthrolin-2-one] | 10 |
| Cc1cc2c(-c3ccc(F)c4[nH]ncc34)c(N)c(=O)[nH]c2c2ncn(C)c12 [Compound M2, 7-Amino-6-(7-fluoro-1H-indazol-4-yl)-3,4-dimethyl-9H-imidazo[4,5-h]quinolin-8-one] | 14 |
| Nc1c(-c2ccc(F)c3[nH]ncc23)c2ccc3ccc(Cl)cc3c2[nH]c1=O [Compound B11, 3-Amino-9-chloro-4-(7-fluoro-1H-indazol-4-yl)-1H-benzo[h]quinolin-2-one] | 30 |
| Nc1c(-c2ccc(F)c3[nH]ncc23)c2cc(N3CC(N4CC(F)(F)C4)C3)c3cccnc3c2[nH]c1=O [Compound D11, 3-Amino-6-[3-(3,3-difluoroazetidin-1-yl)azetidin-1-yl]-4-(7-fluoro-1H-indazol-4-yl)-1H-1,10-phenanthrolin-2-one] | 20 |
| Cc1cc2c(-c3ccc(F)c4[nH]ncc34)c(N)c(=O)[nH]c2c2cc(F)cnc12 [Compound F3, 3-Amino-9-fluoro-4-(7-fluoro-1H-indazol-4-yl)-6-methyl-1H-1,7-phenanthrolin-2-one] | 4 |
| Nc1c(-c2cc(F)c(F)c3[nH]ncc23)c2cc(C3CC3)c3ncccc3c2[nH]c1=O [Compound C191, 3-Amino-6-cyclopropyl-4-(6,7-difluoro-1H-indazol-4-yl)-1H-1,7-phenanthrolin-2-one] | 6 |
| Cc1cc2c(-c3cc(F)c(F)c4[nH]ncc34)c(N)c(=O)[nH]c2c2cc(F)cnc12 [Compound F6, 3-Amino-4-(6,7-difluoro-1H-indazol-4-yl)-9-fluoro-6-methyl-1H-1,7-phenanthrolin-2-one] | 9.3 |
| Nc1c(-c2ccc(F)c3[nH]ncc23)c2cc(I)c3ccc(Cl)cc3c2[nH]c1=O [Compound B9, 3-Amino-9-chloro-4-(7-fluoro-1H-indazol-4-yl)-6-iodo-1H-benzo[h]quinolin-2-one] | 120 |
| Nc1c(-c2ccc(F)c3[nH]ncc23)c2cc(N3CC4CC(C3)O4)c3ncccc3c2[nH]c1=O [Compound C128, 3-Amino-4-(7-fluoro-1H-indazol-4-yl)-6-(6-oxa-3-azabicyclo[3.1.1]heptan-3-yl)-1H-1,7-phenanthrolin-2-one] | 5.8 |
| Nc1c(-c2ccc(Cl)c3[nH]ncc23)c2cc(OCC3CC3)c(F)cc2[nH]c1=O [Compound A3, 3-Amino-4-(7-chloro-1H-indazol-4-yl)-6-(cyclopropylmethoxy)-7-fluoro-1H-quinolin-2-one] | 8.5 |
| Nc1c(-c2cccc(C(F)F)c2)c2cc(Cl)ccc2[nH]c1=O [Compound A51, 3-Amino-6-chloro-4-[3-(difluoromethyl)phenyl]-1H-quinolin-2-one] | 2700 |
| Nc1c(-c2ccc(Cl)c3[nH]ncc23)c2cc(C3CCC3)c3ncccc3c2[nH]c1=O [Compound C147, 3-Amino-4-(7-chloro-1H-indazol-4-yl)-6-cyclobutyl-1H-1,7-phenanthrolin-2-one] | 5.2 |
| Nc1c(-c2ccc(F)c3[nH]ncc23)c2cc(N3CCC(N4CCCC4)CC3)c3ncccc3c2[nH]c1=O [Compound C119, 3-Amino-4-(7-fluoro-1H-indazol-4-yl)-6-(4-pyrrolidin-1-ylpiperidin-1-yl)-1H-1,7-phenanthrolin-2-one] | 2.2 |

Further lines, results first:

| IC50 [nM] | Structure (SMILES) |
| --- | --- |
| 4.5 | Nc1c(-c2ccc(F)c3[nH]ncc23)c2cc(N3CCOCC3)c3ncccc3c2[nH]c1=O [Compound C122, 3-Amino-4-(7-fluoro-1H-indazol-4-yl)-6-morpholin-4-yl-1H-1,7-phenanthrolin-2-one 2,2,2-trifluoroacetate] |
| 0.79 | Nc1c(-c2ccc(F)c3[nH]ncc23)c2cc(OCCC(F)F)c3nccnc3c2[nH]c1=O [Compound G18, 8-Amino-5-(3,3-difluoropropoxy)-7-(7-fluoro-1H-indazol-4-yl)-10H-pyrido[2,3-f]quinoxalin-9-one] |
| 2.6 | Nc1c(-c2ccc(F)c3[nH]ncc23)c2cc(OCC(F)(F)F)c3ncccc3c2[nH]c1=O [Compound C15, 3-Amino-4-(7-fluoro-1H-indazol-4-yl)-6-(2,2,2-trifluoroethoxy)-1H-1,7-phenanthrolin-2-one] |
| 5.3 | Nc1c(-c2ccc(F)c3[nH]ncc23)c2cc(C3CCCO3)c3ncccc3c2[nH]c1=O (stereo not shown) [Compound C96, 3-Amino-4-(7-fluoro-1H-indazol-4-yl)-6-(oxolan-2-yl)-1H-1,7-phenanthrolin-2-one] |
| 2.2 | Nc1c(-c2ccc(F)c3[nH]ncc23)c2cc(OCCCF)c3ncccc3c2[nH]c1=O [Compound C19, 3-Amino-4-(7-fluoro-1H-indazol-4-yl)-6-(3-fluoropropoxy)-1H-1,7-phenanthrolin-2-one] |
| 5.9 | Nc1c(-c2ccc(F)c3[nH]ncc23)c2cc(N3CCCCC3)c3ncccc3c2[nH]c1=O [Compound C125, 3-Amino-4-(7-fluoro-1H-indazol-4-yl)-6-piperidin-1-yl-1H-1,7-phenanthrolin-2-one] |
| 1.6 | N#CCOc1cc2c(-c3ccc(F)c4[nH]ncc34)c(N)c(=O)[nH]c2c2cccnc12 [Compound C62, 2-[[3-Amino-4-(7-fluoro-1H-indazol-4-yl)-2-oxo-1H-1,7-phenanthrolin-6-yl]oxy]acetonitrile] |
| 3.5 | N#C[C@H]1C[C@@H](Oc2cc3c(-c4ccc(F)c5[nH]ncc45)c(N)c(=O)[nH]c3c3cccnc23)C1 [Compound C33, (1s,3s)-3-[[3-Amino-4-(7-fluoro-1H-indazol-4-yl)-2-oxo-1H-1,7-phenanthrolin-6-yl]oxy]cyclobutane-1-carbonitrile] |
| 4.9 | Nc1c(-c2ccc(F)c3[nH]ncc23)c2cc(I)c3ncccc3c2[nH]c1=O [Compound C111, 3-Amino-4-(7-fluoro-1H-indazol-4-yl)-6-iodo-1H-1,7-phenanthrolin-2-one] |
| 4.4 | Cc1cc2c(-c3ccc(C)c4[nH]ncc34)c(N)c(=O)[nH]c2c2cccnc12 [Compound C153, 3-Amino-6-methyl-4-(7-methyl-1H-indazol-4-yl)-1H-1,7-phenanthrolin-2-one] |
| 1.7 | Nc1c(-c2ccc(F)c3[nH]ncc23)c2cc(O[C@H]3CCCOC3)c3ncccc3c2[nH]c1=O [Compound C51, 3-Amino-4-(7-fluoro-1H-indazol-4-yl)-6-[(3S)-oxan-3-yl]oxy-1H-1,7-phenanthrolin-2-one] |
| 1.2 | Nc1c(-c2ccc(F)c3[nH]ncc23)c2cc(OC3CCOCC3)c3ncccc3c2[nH]c1=O [Compound C7, 3-Amino-4-(7-fluoro-1H-indazol-4-yl)-6-(oxan-4-yloxy)-1H-1,7-phenanthrolin-2-one] |
| 1.6 | CC(C)Oc1cc2c(-c3cc(F)c(Cl)c4[nH]ncc34)c(N)c(=O)[nH]c2c2cccnc12 [Compound C194, 3-Amino-4-(7-chloro-6-fluoro-1H-indazol-4-yl)-6-propan-2-yloxy-1H-1,7-phenanthrolin-2-one] |
